The values below come from ChEMBL document CHEMBL2346658, “8,8-dialkyldihydroberberines with potent antiprotozoal activity” (J Nat Prod, 2013).

In one data set the test system is Vero. Put plainly: Cytotoxicity against african green monkey Vero cells. Type of data set: cell-based. Particulars: Chlorocebus sabaeus.
The nature of data set [1]: Selectivity index, ratio of IC50 for african green monkey Vero cells to IC50 for Leishmania donovani. Type of data set: toxicity, cell-based. The settings on record: read-out: Ratio IC50.
Data set [2] deals with Leishmania donovani. The experiment in a line: Antileishmanial activity against Leishmania donovani. Type of data set: functional, organism-based.
Data set [3] deals with Leishmania donovani. The experiment in a line: Potency index, ratio of IC50 for chloroquine to IC50 for compound against Leishmania donovani. It counts as functional.
The nature of data set [4]: Selectivity index, ratio of IC50 for african green monkey Vero cells to IC50 for erythrocyte stage Plasmodium falciparum 3D7. Type of data set: toxicity, cell-based. The settings on record: read-out: Ratio IC50.
Data set [5] relates to Trypanosoma brucei brucei. Put plainly: Antitrypanosomal activity against Trypanosoma brucei brucei blood-stream forms. It counts as functional, organism-based.
A further data set deals with Plasmodium falciparum. Put plainly: Antimalarial activity against erythrocyte stage Plasmodium falciparum 3D7. Type of data set: functional, organism-based.
Data set [6] has as its system Trypanosoma brucei rhodesiense. The experiment in a line: Antitrypanosomal activity against Trypanosoma brucei rhodesiense STIB900 infected in NMRI mouse assessed as infection cure rate at 1 mg/kg/day for 4 days starting from 3 to 6 days post-infection measured on day 7. Type of data set: functional, organism-based.
A short description of data set [7]: Selectivity index, ratio of IC50 for african green monkey Vero cells to IC50 for Trypanosoma brucei brucei blood-stream forms. Particulars: read-out: Ratio IC50. It counts as toxicity, cell-based.
Data set [8] deals with Trypanosoma brucei rhodesiense. Put plainly: Antitrypanosomal activity against Trypanosoma brucei rhodesiense STIB900 infected in NMRI mouse assessed as infection cure rate at 1 mg/kg/day for 4 days starting from 3 to 6 days post-infection measured on day 10. It counts as functional, organism-based.
The nature of data set [9]: Binding affinity to poly(dA.dT) DNA (unknown origin) assessed as change in melting temperature.
The test system of data set [10] is Trypanosoma brucei rhodesiense. Put plainly: Antitrypanosomal activity against Trypanosoma brucei rhodesiense STIB900 infected in NMRI mouse assessed as infection cure rate at 10 mg/kg/day for 4 days starting from 3 to 6 days post-infection measured on day 7. It counts as functional, organism-based.
Data set [11] has as its system Trypanosoma brucei rhodesiense. Put plainly: Antitrypanosomal activity against Trypanosoma brucei rhodesiense STIB900 infected in NMRI mouse assessed as infection cure rate at 10 mg/kg/day for 4 days starting from 3 to 6 days post-infection measured on day 10. It counts as functional, organism-based.
Data set [12] deals with Leishmania donovani. Put plainly: Antileishmanial activity against Leishmania donovani LV82 infected in BALB/c mouse model of visceral leishmaniasis assessed as inhibition of liver parasitemia at 10 mg/kg/day, ip for 5 days starting 7 days post-infection. Particulars: route intraperitoneal. Type of data set: functional.
Another data set deals with Mus musculus. Put plainly: Toxicity in BALB/c mouse assessed as induction of overt toxicity at 10 mg/kg/day, ip for 5 days. Type of data set: organism-based. Also noted: route intraperitoneal. The settings on record: in vivo, 120 h.

Counter-ions that a name gives are not always drawn. The source made the active and inactive calls. No cut-off for these calls is given here. A value given as a limit tells only on which side of the number the result lay.

On to `CCC1(CC)c2c(ccc(OC)c2OC)C(=O)c2c3cc4c(cc3cc[n+]21)OCO4.[Cl-]`, for which the IC50 in the data set with Vero came out at 39000 nM; with Leishmania donovani [2], 290 nM; in data set [5] it was 2 nM; with Plasmodium falciparum it was 20 nM. Further, the selectivity ratio in data set [1] was > 100; in data set [4], > 600; in data set [7] it was 3000. Further, the “Ratio IC50” value with Leishmania donovani [3] was determined as 4. Also, in data set [6], the outcome was Active. In [8], the result was inactive. Further, in data set [9], the ΔTm is 0.5 °C.

Regarding `CCC1(CC)c2c(ccc(OC)c2OC)CC2c3cc4c(cc3CCN21)OCO4` (stereo unspecified) [8,8-DIETHYLCANADINE], the 50% inhibitory concentration (IC50) was found to be 8900 nM in the data set with Leishmania donovani [2], 230 nM in [5] and 1700 nM in the data set on Plasmodium falciparum.

As for `COc1ccc2c(c1OC)C(C)(C)N1CCc3cc4c(cc3C1C2)OCO4` (stereo unspecified) [8,8-DIMETHYLCANADINE], the IC50 in the data set on Leishmania donovani [2] was 7300 nM; in [5], 52000 nM; in the data set with Plasmodium falciparum, 7300 nM.

Take `CCC1(CC)c2c(ccc(OC)c2OC)CC2=[N+]1CCc1cc3c(cc12)OCO3.[Cl-]` [8,8-Diethyldihydroberberine]: the IC50 was found to be 18000 nM in the data set on Vero, 100 nM in the data set on Leishmania donovani [2], 5.3 nM in data set [5] and 77 nM in the data set on Plasmodium falciparum. In addition, the selectivity ratio in [1] is > 100; in [7] it was 3000. Moreover, the result in [10] was Active. For the same compound, the outcome in data set [11] was inactive. In the data set on Leishmania donovani [12], the inhibition in vivo at 10 mg/kg/day stood at 29%. Moreover, in data set [9], the ΔTm stood at 0.5 °C. Moreover, the Activity entry in the data set with Mus musculus is recorded as “Non-toxic”.

Take `CCCC1(CCC)c2c(ccc(OC)c2OC)CC2=[N+]1CCc1cc3c(cc12)OCO3.[Cl-]` [8,8-Dipropyldihydroberberine]: the 50% inhibitory concentration (IC50) stood at 19000 nM with Vero, 550 nM in the data set on Leishmania donovani [2], 53 nM in data set [5] and 30 nM with Plasmodium falciparum. Further, in the data set on Leishmania donovani [3], the “Ratio IC50” value is recorded as 4. In [4], the selectivity ratio is > 600. The inhibition in vivo at 10 mg/kg/day in the data set on Leishmania donovani [12] was 32%. Moreover, the ΔTm in data set [9] came to 0 °C. In the data set on Mus musculus, the Activity result is “Non-toxic”.

As for `COc1ccc2c(c1OC)C(C)(C)[N+]1=C(C2)c2cc3c(cc2CC1)OCO3.[Cl-]` [8,8-dimethyldihydroberberine], the concentration for half-maximal inhibition (IC50) in the data set on Vero was 8800 nM; in the data set with Leishmania donovani [2], 200 nM; in [5] it was 4600 nM; in the data set with Plasmodium falciparum, 63 nM. Further, the inhibition in vivo at 10 mg/kg/day with Leishmania donovani [12] is 46%. In data set [9], the ΔTm amounted to 0.3 °C. For the same compound, the Activity entry in the data set on Mus musculus is reported as “Non-toxic”.

Turning to `C[C@@H]1[C@H](O)[C@@H](C)/C=C/C=C/C=C/C=C/C=C/C=C/C=C/[C@H](O[C@@H]2O[C@H](C)[C@@H](O)[C@H](N)[C@@H]2O)C[C@@H]2O[C@](O)(C[C@@H](O)C[C@@H](O)[C@H](O)CC[C@@H](O)C[C@@H](O)CC(=O)O[C@H]1C)C[C@H](O)[C@H]2C(=O)O` [AMPHOTERICIN B], in the data set with Leishmania donovani [2], the half-maximal inhibitory concentration (IC50) was 46 nM.

Consider `COc1ccc2cc3[n+](cc2c1OC)CCc1cc2c(cc1-3)OCO2` [BERBERINE SULFATE], for which the IC50 with Vero was > 200000 nM; in the data set with Leishmania donovani [2], 17000 nM. Moreover, the ΔTm in [9] was found to be 3.5 °C.

On to `CCCCCCCCCCCCCCCCOP(=O)([O-])OCC[N+](C)(C)C` [MILTEFOSINE], for which the inhibition in vivo at 10 mg/kg/day in the data set with Leishmania donovani [12] stood at 97%.

Consider `COc1cc([C@@H]2c3cc4c(cc3[C@H](O)[C@H]3COC(=O)[C@H]23)OCO4)cc(OC)c1OC` [PODOFILOX], for which 17 nM corresponded to half-maximal inhibition in the data set with Vero (IC50).

`Cc1ccc(C(=O)Nc2ccc(S(=O)(=O)O)c3cc(S(=O)(=O)O)cc(S(=O)(=O)O)c23)cc1NC(=O)c1cccc(NC(=O)Nc2cccc(C(=O)Nc3cc(C(=O)Nc4ccc(S(=O)(=O)O)c5cc(S(=O)(=O)O)cc(S(=O)(=O)O)c45)ccc3C)c2)c1` [SURAMIN] returned an IC50 in data set [5] of 130 nM.
